Laboratory results reported in ChEMBL document CHEMBL2146462, “Tyrosinase inhibitory activity of a 6-isoprenoid-substituted flavanone isolated from Dalea elegans” (Bioorg Med Chem, 2011).
Values belong to the compound of their own block, whether it stands above or below them. The source made the active and inactive calls. No cut-off for these calls is given here.

How the values were obtained:
Tyrosinase [1] = molecular target: T1, Tyrosinase (Agaricus bisporus, UniProt O42713)
T1 sequence (O42713 whole entry): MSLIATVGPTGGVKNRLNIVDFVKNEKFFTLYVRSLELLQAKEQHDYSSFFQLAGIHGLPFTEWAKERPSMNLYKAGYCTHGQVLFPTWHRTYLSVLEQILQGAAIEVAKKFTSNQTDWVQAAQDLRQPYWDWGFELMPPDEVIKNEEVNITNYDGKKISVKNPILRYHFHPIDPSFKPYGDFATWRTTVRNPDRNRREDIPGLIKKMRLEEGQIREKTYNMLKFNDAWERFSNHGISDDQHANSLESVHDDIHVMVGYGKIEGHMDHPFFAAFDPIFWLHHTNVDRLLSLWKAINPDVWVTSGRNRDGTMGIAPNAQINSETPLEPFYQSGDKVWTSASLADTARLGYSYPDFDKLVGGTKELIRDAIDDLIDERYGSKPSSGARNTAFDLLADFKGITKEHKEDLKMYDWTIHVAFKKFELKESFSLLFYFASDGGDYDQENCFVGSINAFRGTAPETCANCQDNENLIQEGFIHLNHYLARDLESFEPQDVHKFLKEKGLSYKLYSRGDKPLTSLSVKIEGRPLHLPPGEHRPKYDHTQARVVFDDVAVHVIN
Description: Inhibition of mushroom tyrosinase using as L-DOPA substrate after 2 mins by spectrophotometric analysis

Tyrosinase [2] = molecular target: T1, Tyrosinase; remark: listed apart in the source
[3] = molecular target: T2, Tyrosinase (Agaricus bisporus) (UniProt O42713); assay: Potency index, ratio IC50 for hydroquinone to compound against mushroom tyrosinase using as L-tyrosine substrate after 10 mins by spectrophotometric analysis
T2 sequence (whole entry): T1 sequence (O42713 whole entry)

[4] = molecular target: T2, Tyrosinase (Agaricus bisporus); assay: Inhibition of mushroom tyrosinase assessed as lag time for L-tyrosine oxidation at 5.51 uM by spectrophotometric analysis
[5] = molecular target: T2, Tyrosinase (Agaricus bisporus); assay: Inhibition of mushroom tyrosinase assessed as reduction in reaction rate of L-tyrosine oxidation by spectrophotometric analysis
[6] = molecular target: T2, Tyrosinase (Agaricus bisporus); assay: Reversible inhibition of mushroom tyrosinase using L-tyrosine substrate by spectrophotometric analysis
[7] = molecular target: T2, Tyrosinase (Agaricus bisporus); assay: Reversible inhibition of mushroom tyrosinase using L-DOPA substrate by spectrophotometric analysis
[8] = molecular target: T2, Tyrosinase (Agaricus bisporus); assay: Potency index, ratio IC50 for hydroquinone to compound against mushroom tyrosinase using as […] substrate after 10 mins by spectrophotometric analysis
[9] = molecular target: T2, Tyrosinase (Agaricus bisporus); assay: Competitive inhibition of mushroom tyrosinase using L-tyrosine substrate by Lineweaver-Burk double reciprocal plot analysis
[10] = molecular target: T2, Tyrosinase (Agaricus bisporus); assay: Noncompetitive inhibition of mushroom tyrosinase using […] substrate by Lineweaver-Burk double reciprocal plot analysis
[11] = molecular target: T2, Tyrosinase (Agaricus bisporus); assay: […] mixed-I type inhibition of mushroom tyrosinase using L-tyrosine substrate by Lineweaver-Burk double reciprocal plot analysis
Tyrosinase [12] = molecular target: T1, Tyrosinase; assay: Inhibition of mushroom tyrosinase assessed as inhibition constant for compound-free enzyme using as L-tyrosine substrate by spectrophotometric analysis
Tyrosinase [13] = molecular target: T1, Tyrosinase; assay: Inhibition of mushroom tyrosinase assessed as inhibition constant for compound-enzyme-substrate complex using as L-tyrosine substrate by spectrophotometric analysis
Tyrosinase [14] = molecular target: T1, Tyrosinase; assay: Inhibition of mushroom tyrosinase assessed as inhibition constant for compound-free enzyme using as […] substrate by spectrophotometric analysis
Tyrosinase [15] = molecular target: T1, Tyrosinase; assay: Inhibition of mushroom tyrosinase assessed as inhibition constant for compound-enzyme-substrate complex using as […] substrate by spectrophotometric analysis
[16] = molecular target: T2, Tyrosinase (Agaricus bisporus); assay: Potency index, ratio IC50 for kojic acid to compound against mushroom tyrosinase using as L-tyrosine substrate after 10 mins by spectrophotometric analysis
[17] = Metal chelating activity of the compound assessed as formation of copper complex at 84.66 uM after 1 min by UV-vis spectroscopy; type: functional
[18] = molecular target: T2, Tyrosinase (Agaricus bisporus); assay: Potency index, ratio Ki for kojic acid to compound against mushroom tyrosinase assessed as inhibition constant for compound-free enzyme using as L-tyrosine substrate by spectrophotometric analysis
[19] = molecular target: T2, Tyrosinase (Agaricus bisporus); assay: Potency index, ratio Ki for kojic acid to compound against mushroom tyrosinase diphenolase activity
[20] = molecular target: T2, Tyrosinase (Agaricus bisporus); assay: Potency index, ratio IC50 for (Z,Z)-5-trideca-4,7-dienyl)-resorcinol to compound against mushroom tyrosinase assessed as inhibition constant for compound-free enzyme using as L-tyrosine substrate by spectrophotometric analysis
[21] = molecular target: T2, Tyrosinase (Agaricus bisporus); assay: Potency index, ratio IC50 for ascorbic acid to compound against mushroom tyrosinase assessed as inhibition constant for compound-free enzyme using as L-tyrosine substrate by spectrophotometric analysis
[22] = molecular target: T2, Tyrosinase (Agaricus bisporus); assay: Potency index, ratio IC50 for arbutin to compound against mushroom tyrosinase assessed as inhibition constant for compound-free enzyme using as L-tyrosine substrate by spectrophotometric analysis
Tyrosinase [23] = molecular target: T1, Tyrosinase; remark: listed apart in the source
Description: Inhibition of mushroom tyrosinase using as L-tyrosine substrate after 10 mins by spectrophotometric analysis

SMILES: CCCCC/C=C\C/C=C\CCCc1cc(O)cc(O)c1
- IC50 (Tyrosinase [1]): 51.9 µM
- IC50 (Tyrosinase [2]): 1.7 µM

SMILES: CC1(C)C=Cc2c(cc3c(c2O)C(=O)CC(c2ccc(O)cc2O)O3)O1 (centres undefined) [DALENIN]
- Ratio IC50 [3]: 52
- TIME [4]: 0.167 h
- inhibition [5]: Active
- inhibition [6]: Active
- inhibition [7]: Active
- Ratio IC50 [8]: 59
- inhibition [9]: Active
- inhibition [10]: Active
- inhibition [11]: Active
- Ki (Tyrosinase [12]): 1.98 µM
- Ki (Tyrosinase [13]): 7.6 µM
- Ki (Tyrosinase [14]): 160 µM
- Ki (Tyrosinase [15]): 160 µM
- Ratio IC50 [16]: 495
- Activity [17]: Active
- Ratio Ki [18]: 15
- Ratio Ki [19]: 8
- Ratio IC50 [20]: 3
- Ratio IC50 [21]: 7
- Ratio IC50 [22]: 285
- IC50 (Tyrosinase [23]): 0.26 µM
- IC50 (Tyrosinase [1]): 18.6 µM

SMILES: O=S([O-])O.[Na+] [SODIUM BISULFITE]
- IC50 (Tyrosinase [2]): 210 µM

More lines, now with the values ahead:

- IC50 (Tyrosinase [23]): 13.5 µM
- IC50 (Tyrosinase [1]): 1090 µM
SMILES: Oc1ccc(O)cc1 [HYDROQUINONE]

- IC50 (Tyrosinase [23]): 1.3 µM
- IC50 (Tyrosinase [1]): 26.5 µM
SMILES: O=C1CC(c2ccc(O)cc2O)Oc2cc(O)cc(O)c21 (centres undefined) [STEPPOGENIN]
